Tested on: production of TNF-alpha in RAW 264.7 cells
Assay: Inhibition of TNF-alpha production in LPS-treated RAW 264.7 cells, ELISA of culture supernatant
Format: cell-based, mouse
Conditions: Mus musculus, RAW264.7, Table 23, LPS 0.3 μg/ml, 24 hours, compounds up to 10 μM, IC50 unit inferred
Procedure: To test the inhibiting activity of the compounds prepared from above Examples on the production of TNF-alpha, the concentration of TNF-alpha in the cell supernatant was measured.
Each 200 μl of RAW 264.7 cells (ATCC, USA), a mouse macrophage cell line was seeded onto each well of 96-well microtiter plate (Nunc, Sweden) to the concentration ranging from 1×10^6 cells/ml to 5×10^6 cells/ml, and incubated in DMEM (Dulbeco's modified eagles medium) media containing 5% FBS (fetal bovine serum) at 37° C. in 5% CO2 incubator.
Various concentrations of the compounds of the present invention ranging from […] to 10 μM and LPS (Sigma, USA) in the final concentration of 0.3 μg/ml were treated to activated cell simultaneously. The treated cells were cultured at 37° C. for 24 hours in 5% CO2 incubator and the cultured cells were collected after the cultivation
And then the concentration of TNF-alpha secreted from the culture supernatant of RAW 264.7 cells was determined by ELISA according to the manufacture's instruction (R&D Systems, Minneapolis, Minn.).
The result was shown in Table 23 (AA: IC50's<1, A: IC50's<5, B: IC50's<10, C: IC50's>10).

**Q.** `COc1ccc(CN2CC=C(CCC(=O)NO)C2=O)c(OC)c1` [Example 1, 3-[1-(2,4-Dimethoxybenzyl)-2-oxo-2,5-dihydro-1H-pyrrol-3-yl]-N-hydroxypropionamide] was tested. Which IC50 did it give?
**A.** < 10 µM

**Q.** With `O=C(CCC1=CCN(Cc2ccccc2)C1=O)NO` [Example 2, 3-(1-benzyl-2-oxo-2,5-dihydro-1H-pyrrol-3-yl)-N-hydroxy-propionamide] as the compound, how does the IC50 read?
**A.** < 5 µM

**Q.** `O=C(CCC1=CCN(CCc2ccccc2)C1=O)NO` [Example 3, N-hydroxy-3-(2-oxo-1-phenethyl-2,5-dihydro-1H-pyrrol-3-yl)-propionamide] was tested. Which IC50 did it give?
**A.** < 5 µM

**Q.** With `O=C(CCC1=CCN(CCCc2ccccc2)C1=O)NO` [Example 4, N-hydroxy-3-[2-oxo-1-(3-phenyl-propyl)-2,5-dihydro-1H-pyrrol-3-yl]-propionamide] as the compound, how does the IC50 read?
**A.** < 1 µM

**Q.** With `O=C(CCC1=CCN(CCCCc2ccccc2)C1=O)NO` [Example 5, N-hydroxy-3-[2-oxo-1-(4-phenyl-butyl)-2,5-dihydro-1H-pyrrol-3-yl]-propionamide] as the compound, how does the IC50 read?
**A.** < 5 µM

**Q.** `Cc1ccccc1CN1CC=C(CCC(=O)NO)C1=O` [Example 6, N-hydroxy-3-[1-(2-methyl-benzyl)-2-oxo-2,5-dihydro-1H-pyrrol-3-yl]-propionamide] was tested. Which IC50 did it give?
**A.** < 5 µM

**Q.** `Cc1cccc(CN2CC=C(CCC(=O)NO)C2=O)c1` [Example 7, N-hydroxy-3-[1-(3-methyl-benzyl)-2-oxo-2,5-dihydro-1H-pyrrol-3-yl]-propionamide] was tested. Which IC50 did it give?
**A.** < 5 µM

**Q.** Which IC50 does the source give for `Cc1ccc(CN2CC=C(CCC(=O)NO)C2=O)cc1` [Example 8, N-hydroxy-3-[1-(4-methyl-benzyl)-2-oxo-2,5-dihydro-1H-pyrrol-3-yl]-propionamide] here?
**A.** < 5 µM

**Q.** For `COc1ccccc1CN1CC=C(CCC(=O)NO)C1=O` [Example 9, N-hydroxy-3-[1-(2-methoxy-benzyl)-2-oxo-2,5-dihydro-1H-pyrrol-3-yl]-propionamide], which IC50 is on record?
**A.** < 10 µM

**Q.** How did the IC50 turn out when `COc1cccc(CN2CC=C(CCC(=O)NO)C2=O)c1` [Example 10, N-hydroxy-3-[1-(3-methoxy-benzyl)-2-oxo-2,5-dihydro-1H-pyrrol-3-yl]-propionamide] was run?
**A.** < 5 µM

**Q.** Which IC50 does the source give for `COc1ccc(CN2CC=C(CCC(=O)NO)C2=O)cc1` [Example 11, N-hydroxy-3-[1-(4-methoxy-benzyl)-2-oxo-2,5-dihydro-1H-pyrrol-3-yl]-propionamide] here?
**A.** < 1 µM

**Q.** How did the IC50 turn out when `O=C(CCC1=CCN(Cc2ccc(Br)cc2)C1=O)NO` [Example 12, 3-[1-(4-bromo-benzyl)-2-oxo-2,5-dihydro-1H-pyrrol-3-yl]-N-hydroxy-propionamide] was run?
**A.** < 1 µM

**Q.** With `O=C(CCC1=CCN(Cc2ccc(Cl)cc2)C1=O)NO` [Example 13, 3-[1-(4-chloro-benzyl)-2-oxo-2,5-dihydro-1H-pyrrol-3-yl]-N-hydroxy-propionamide] as the compound, how does the IC50 read?
**A.** < 5 µM

**Q.** How did the IC50 turn out when `O=C(CCC1=CCN(Cc2ccc(OCc3ccccc3)cc2)C1=O)NO` [Example 14, 3-[1-(4-benzyloxy-benzyl)-2-oxo-2,5-dihydro-1H-pyrrol-3-yl]-N-hydroxy-propionamide] was run?
**A.** > 10 µM

**Q.** Which IC50 does the source give for `O=C(CCC1=CCN(Cc2ccc([N+](=O)[O-])cc2)C1=O)NO` [Example 15, N-hydroxy-3-[1-(4-nitro-benzyl)-2-oxo-2,5-dihydro-1H-pyrrol-3-yl]-propionamide] here?
**A.** < 10 µM

**Q.** `COc1ccc(CN2CC=C(CCC(=O)O)C2=O)c(OC)c1` [Example 16, 3-[1-(2,4-dimethoxy-benzyl)-2-oxo-2,5-dihydro-1H-pyrrol-3-yl]-propionic acid] was tested. Which IC50 did it give?
**A.** > 10 µM

**Q.** For `O=C(O)CCC1=CCN(Cc2ccccc2)C1=O` [Example 17, 3-(1-benzyl-2-oxo-2,5-dihydro-1H-pyrrol-3-yl)-propionic acid], which IC50 is on record?
**A.** > 10 µM

**Q.** With `O=C(CCC1=CCN(Cc2ccc(NC(=O)c3ccccc3)cc2)C1=O)NO` [Example 18, N-{4-[3-(2-hydroxycarbamoyl-ethyl)-2-oxo-2,5-dihydro-pyrrole-1-yl-methyl]-phenyl}-benzamide] as the compound, how does the IC50 read?
**A.** > 10 µM

**Q.** For `Cc1ccc(S(=O)(=O)Nc2ccc(CN3CC=C(CCC(=O)NO)C3=O)cc2)cc1` [Example 19, N-hydroxy-3-{2-oxo-1-[4-(toluene-4-sulfonylamino)-benzyl]-2,5-dihydro-1H-pyrrol-3-yl}-propionamide], which IC50 is on record?
**A.** < 10 µM

**Q.** Which IC50 does the source give for `O=C(CC1=CCN(Cc2ccccc2)C1=O)NO` [Example 20, 2-(1-benzyl-2-oxo-2,5-dihydro-1H-pyrrol-3-yl)-N-hydroxy-acetamide] here?
**A.** > 10 µM

**Q.** `COc1ccc(CN2CC=C(CC(=O)NO)C2=O)c(OC)c1` [Example 21, 2-[1-(2,4-dimethoxy-benzyl)-2-oxo-2,5-dihydro-1H-pyrrol-3-yl]-N-hydroxy-acetamide] was tested. Which IC50 did it give?
**A.** > 10 µM

**Q.** With `O=C(CC1=CCN(CCc2ccccc2)C1=O)NO` [Example 22, N-hydroxy-2-(2-oxo-1-phenethyl-2,5-dihydro-1H-pyrrol-3-yl)-acetamide] as the compound, how does the IC50 read?
**A.** > 10 µM

**Q.** For `O=C(CC1=CCN(CCCCc2ccccc2)C1=O)NO` [Example 23, N-hydroxy-2-[2-oxo-1-(4-phenyl-butyl)-2,5-dihydro-1H-pyrrol-3-yl]-acetamide], which IC50 is on record?
**A.** > 10 µM

**Q.** Which IC50 does the source give for `O=C(CC1CCN(Cc2ccccc2)C1=O)NO` (stereo not shown) [Example 25, 2-(1-benzyl-2-oxo-pyrrolidin-3-yl)-N-hydroxy-acetamide] here?
**A.** > 10 µM

**Q.** Which IC50 does the source give for `COc1ccc(CN2CCC(CC(=O)NO)C2=O)c(OC)c1` (stereo not shown) [Example 26, 2-[1-(2,4-dimethoxy-benzyl)-2-oxo-pyrrolidin-3-yl]-N-hydroxy-acetamide] here?
**A.** > 10 µM

**Q.** `O=C(CC1CCN(CCc2ccccc2)C1=O)NO` (stereo not shown) [Example 27, N-hydroxy-2-(2-oxo-1-phenethyl-pyrrolidin-3-yl)-acetamide] was tested. Which IC50 did it give?
**A.** > 10 µM

**Q.** With `O=C(CCC1=CCN(CCc2ccccc2F)C1=O)NO` [Example 28, 3-{1-[2-(2-fluoro-phenyl)-ethyl]-2-oxo-2,5-dihydro-1H-pyrrol-3-yl}-N-hydroxy-propionamide] as the compound, how does the IC50 read?
**A.** < 5 µM

**Q.** With `O=C(CCC1=CCN(CCc2cccc(F)c2)C1=O)NO` [Example 29, 3-{1-[2-(3-fluoro-phenyl)-ethyl]-2-oxo-2,5-dihydro-1H-pyrrol-3-yl}-N-hydroxy-propionamide] as the compound, how does the IC50 read?
**A.** < 5 µM

**Q.** `O=C(CCC1=CCN(CCc2ccc(F)cc2)C1=O)NO` [Example 30, 3-{1-[2-(4-fluoro-phenyl)-ethyl]-2-oxo-2,5-dihydro-1H-pyrrol-3-yl}-N-hydroxy-propionamide] was tested. Which IC50 did it give?
**A.** < 5 µM

**Q.** `O=C(CCC1=CCN(CCc2ccccc2[N+](=O)[O-])C1=O)NO` [Example 31, N-hydroxy-3-{1-[2-(2-nitro-phenyl)-ethyl]-2-oxo-2,5-dihydro-1H-pyrrol-3-yl}-propionamide] was tested. Which IC50 did it give?
**A.** > 10 µM

**Q.** For `O=C(CCC1=CCN(CCc2cccc([N+](=O)[O-])c2)C1=O)NO` [Example 32, N-hydroxy-3-{1-[2-(3-nitro-phenyl)-ethyl]-2-oxo-2,5-dihydro-1H-pyrrol-3-yl}-propionamide], which IC50 is on record?
**A.** > 10 µM

**Q.** `O=C(CCC1=CCN(CCc2ccc([N+](=O)[O-])cc2)C1=O)NO` [Example 33, N-hydroxy-3-{1-[2-(4-nitro-phenyl)-ethyl]-2-oxo-2,5-dihydro-1H-pyrrol-3-yl}-propionamide] was tested. Which IC50 did it give?
**A.** < 10 µM

**Q.** Which IC50 does the source give for `O=C(CCC1=CCN(CCc2ccccc2Br)C1=O)NO` [Example 34, 3-{1-[2-(2-bromo-phenyl)-ethyl]-2-oxo-2,5-dihydro-1H-pyrrol-3-yl}-N-hydroxy-propionamide] here?
**A.** < 5 µM

**Q.** With `O=C(CCC1=CCN(CCc2ccc(Br)cc2)C1=O)NO` [Example 35, 3-{1-[2-(4-bromo-phenyl)-ethyl]-2-oxo-2,5-dihydro-1H-pyrrol-3-yl}-N-hydroxy-propionamide] as the compound, how does the IC50 read?
**A.** < 5 µM
